From article PMC7725003, “Systematically Studying the Optimal Amino Acid Distribution Patterns of the Amphiphilic Structure by Using the Ultrashort Amphiphiles” (Frontiers in Microbiology, 2020)
Where no end group is shown, it is not given here.

Columns and labels:
B. subtilis 63501 = type: cell-based, Bacillus subtilis; settings: 63501, 24 h
Procedure, shortened: (§1)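 Bacteria were grown to mid-log phase and diluted in MHB to 0.5–1 × 10^6 CFU mL^–1. Serial peptide dilutions in 0.2% BSA were added at equal volume and plates incubated 24 h at 37°C. Growth inhibition of 95% at 492 nm defined the MIC.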

S. aureus 29213 [1] = test: Salt sensitivity assay (MIC); type: cell-based, Staphylococcus aureus; settings: for MIC, FeCl3: 4 μM FeCl3; for MIC, NH4Cl: 6 μM NH4Cl; for MIC, ZnCl2: 8 μM ZnCl2; for MIC, MgCl2: 1 mM MgCl2; for MIC, CaCl2: 2 mM CaCl2; for MIC, KCl: 4.5 mM KCl; for MIC, NaCl: 150 mM NaCl; for MIC, Control: no added salt, three independent assays
Procedure, shortened: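 Physiological salts (150 mM NaCl, 4.5 mM KCl, 6 μM NH4Cl, 8 μM ZnCl2, 1 mM MgCl2, 2mM CaCl2, 4 μM FeCl3) added to MHB. Bacteria at 0.5–1 × 10^6 CFU/mL exposed to serially diluted peptides for 24 h at 37°C. MIC read as lowest peptide concentration giving 95% growth inhibition by absorbance at 492 nm.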

E. coli UB1005 = type: cell-based, Escherichia coli; settings: UB1005, 24 h
Procedure, shortened: as §1

E. coli O78 = type: cell-based, Escherichia coli; settings: O78, 24 h
Procedure, shortened: as §1

E. coli 25922 = type: cell-based, Escherichia coli; settings: 25922, 24 h
Procedure, shortened: as §1

E. faecalis 29212 = type: cell-based, Enterococcus faecalis; settings: 29212, 24 h
Procedure, shortened: as §1

S. epidermidis 12228 = type: cell-based, Staphylococcus epidermidis; settings: 12228, 24 h
Procedure, shortened: as §1

[2] = tested on: Listeria monocytogenes CGMCC 1.1075; type: cell-based; settings: CGMCC 1.1075, 24 h
Procedure, shortened: as §1

Gram-positive bacteria [3] = settings: geometric mean of MBCs, 7 Gram-positive strains (Table 2)
Gram-negative bacteria [4] = settings: geometric mean of MBCs, 9 Gram-negative strains (Table 2)
E. coli K99 = settings: for MIC: MHB, 24 h 37°C, 95% growth inhibition
Procedure: (§2) The antimicrobial activities of the peptides were measured using a method adapted from the National Committee for Clinical Laboratory Standards (NCCLS) with some modifications ([Chou et al., 2016]). The specific procedure for these assays has been previously described. In brief, the bacterial cells were grown to a mid-logarithmic phase and diluted in MHB to an ultimate concentration of 0.5–1 × 10^6 CFU mL^–1. Subsequently, the peptides were consecutively diluted in a 0.2% BSA solution and then added to a bacterial solution in a 96-well plate at identical volumes. After incubation for 24 h at 37°C, the MICs were determined to be the lowest peptide concentration that inhibited 95% of the bacterial growth by monitoring the absorbance at 492 nm using a microplate reader. Subsequently, 50 μL of each incubation mixture was further transferred to agar plates and incubated overnight. […] Every assay was reproduced more than 3 times.

E. coli K88 = settings: for MIC: MHB, 24 h 37°C, 95% growth inhibition; for MBC: value in brackets, >99.9% of cells killed
Procedure: as §2

S. aureus 25923 = type: cell-based, Staphylococcus aureus; settings: 25923, 24 h
Procedure, shortened: as §1

S. aureus 29213 [5] = type: cell-based, Staphylococcus aureus; settings: 29213, 24 h
Procedure, shortened: as §1

E. coli ATCC 25922 = test: Salt sensitivity assay (MIC); type: cell-based, Escherichia coli; settings: for MIC, FeCl3: 4 μM FeCl3; for MIC, NH4Cl: 6 μM NH4Cl; for MIC, ZnCl2: 8 μM ZnCl2; for MIC, MgCl2: 1 mM MgCl2; for MIC, CaCl2: 2 mM CaCl2; for MIC, KCl: 4.5 mM KCl; for MIC, NaCl: 150 mM NaCl; for MIC, Control: no added salt, three independent assays
Procedure, shortened: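 Peptides diluted serially in 0.2% BSA solution were combined at identical volumes with mid-logarithmic E. coli ATCC 25922 in MHB (0.5–1 × 10^6 CFU mL^–1) in 96-well plates, with or without a physiological salt. Plates were incubated for 24 h at 37°C. MIC was the lowest concentration inhibiting 95% of growth, measured as absorbance at 492 nm on a microplate reader.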

S. typhimurium 7731 = type: cell-based, Salmonella typhimurium; settings: 7731, 24 h
Procedure, shortened: as §1

S. typhimurium 14028 = type: cell-based, Salmonella typhimurium; settings: 14028, 24 h
Procedure, shortened: as §1

[6] = tested on: all of the tested bacterial strains; test: Geometric mean of MICs, all tested bacterial strains; type: cell-based; settings: for GM, All: geometric mean of MICs across all tested strains; for TI, All: therapeutic index TI = MHC/GM MIC
Procedure, shortened: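 Per strain, MIC came from absorbance at 492 nm after 24 h at 37°C (≥95% inhibition), using mid-log inoculum of 0.5–1 × 10^6 CFU mL^–1 in MHB and peptide diluted in 0.2% BSA. MBC (>99.9% killed) came from overnight agar plating, and values are geometric means across strains.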

MRSA 43300 = type: cell-based, methicillin-resistant S. aureus; settings: 43300, 24 h
Procedure, shortened: as §1

S. pullorum 7913 = type: cell-based, Salmonella pullorum; settings: 7913, 24 h
Procedure, shortened: as §1

Gram-positive bacteria [7] = settings: for GM MIC: geometric mean of MICs, 7 Gram-positive strains (Table 2); for TI, Gram-positive bacteria: therapeutic index TI = MHC/GM MIC
Procedure, shortened: (§3)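 MIC is the lowest peptide concentration giving 95% growth inhibition, read at 492 nm after 24 h incubation at 37°C. Peptides were serially diluted in 0.2% BSA and added to mid-logarithmic cells at 0.5–1 × 10^6 CFU mL^–1 in MHB, following a modified NCCLS method, with more than 3 repeats.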

Gram-negative bacteria [8] = settings: for GM MIC: geometric mean of MICs, 9 Gram-negative strains (Table 2); for TI, Gram-negative bacteria: therapeutic index TI = MHC/GM MIC
Procedure, shortened: as §3

P. aeruginosa 27853 = type: cell-based, Pseudomonas aeruginosa; settings: 27853, 24 h
Procedure, shortened: as §1

LLRLRRRLL-NH2 [L2]
70.66 µM: GM MBC (Gram-positive bacteria [3])
21.77 µM: GM MIC (Gram-negative bacteria [8])
32 µM: MBC (E. coli UB1005) | MBC (E. coli K88) | MIC, CaCl2 (E. coli ATCC 25922) | MIC, NaCl (E. coli ATCC 25922) | MIC (MRSA 43300) | MBC (S. pullorum 7913)
52.50 µM: GM MIC (Gram-positive bacteria [7])
33.42 µM: GM, All [6]
8 µM: MIC (E. coli O78) | MIC (E. coli 25922) | MIC (E. coli K99) | MIC, FeCl3 (E. coli ATCC 25922) | MIC, NH4Cl (E. coli ATCC 25922) | MIC, ZnCl2 (E. coli ATCC 25922) | MIC, Control (E. coli ATCC 25922)
16 µM: MIC (E. coli UB1005) | MBC (E. coli O78) | MBC (E. coli 25922) | MBC (E. coli K99; value in brackets, >99.9% of cells killed) | MIC (E. coli K88) | MIC, MgCl2 (E. coli ATCC 25922) | MIC, KCl (E. coli ATCC 25922) | MIC (S. pullorum 7913)
2 µM: MIC (B. subtilis 63501)
4.88: TI, Gram-positive bacteria (Gram-positive bacteria [7])
> 64 µM: MIC, FeCl3 (S. aureus 29213 [1]) | MIC, NH4Cl (S. aureus 29213 [1]) | MIC, ZnCl2 (S. aureus 29213 [1]) | MIC, MgCl2 (S. aureus 29213 [1]) | MIC, CaCl2 (S. aureus 29213 [1]) | MIC, KCl (S. aureus 29213 [1]) | MIC, NaCl (S. aureus 29213 [1]) | MIC, Control (S. aureus 29213 [1]) | MIC (E. faecalis 29212) | MIC (S. epidermidis 12228) | MIC (S. aureus 25923) | MIC (P. aeruginosa 27853)
128 µM: MBC (S. aureus 29213 [5]) | MBC (S. typhimurium 7731) | MBC (S. typhimurium 14028)
64 µM: MIC (S. aureus 29213 [5]) | MIC (S. typhimurium 7731) | MIC (S. typhimurium 14028) | MBC (MRSA 43300)
40.32 µM: GM MBC (Gram-negative bacteria [4])
11.76: TI, Gram-negative bacteria (Gram-negative bacteria [8])
>64 µM: MIC [2]
7.66: TI, All [6]
4 µM: MBC (B. subtilis 63501)

LRRLRLLRL-NH2 [L12]
3.62: TI, Gram-positive bacteria (Gram-positive bacteria [7])
86.14 µM: GM MBC (Gram-positive bacteria [3])
64 µM: MBC (E. coli UB1005) | MIC (E. coli O78) | MBC (E. coli 25922) | MBC (S. pullorum 7913)
70.66 µM: GM MIC (Gram-positive bacteria [7])
16 µM: MIC (B. subtilis 63501) | MIC [2] | MIC (E. coli K88)
59.26 µM: GM MIC (Gram-negative bacteria [8])
4.32: TI, Gram-negative bacteria (Gram-negative bacteria [8])
87.09 µM: GM MBC (Gram-negative bacteria [4])
128 µM: MBC (E. coli O78)
> 64 µM: MIC, FeCl3 (S. aureus 29213 [1]) | MIC, NH4Cl (S. aureus 29213 [1]) | MIC, ZnCl2 (S. aureus 29213 [1]) | MIC, MgCl2 (S. aureus 29213 [1]) | MIC, CaCl2 (S. aureus 29213 [1]) | MIC, KCl (S. aureus 29213 [1]) | MIC, NaCl (S. aureus 29213 [1]) | MIC, Control (S. aureus 29213 [1]) | MIC (E. faecalis 29212) | MIC (S. epidermidis 12228) | MIC (E. coli K99) | MIC (S. aureus 25923) | MIC, MgCl2 (E. coli ATCC 25922) | MIC, CaCl2 (E. coli ATCC 25922) | MIC, NaCl (E. coli ATCC 25922) | MIC (S. typhimurium 7731) | MIC (S. typhimurium 14028) | MIC (P. aeruginosa 27853)
>64 µM: MIC (S. aureus 29213 [5]) | MIC (MRSA 43300)
4.00: TI, All [6]
32 µM: MBC (B. subtilis 63501) | MIC (E. coli UB1005) | MIC (E. coli 25922) | MBC [2] | MBC (E. coli K88) | MIC, FeCl3 (E. coli ATCC 25922) | MIC, NH4Cl (E. coli ATCC 25922) | MIC, ZnCl2 (E. coli ATCC 25922) | MIC, KCl (E. coli ATCC 25922) | MIC, Control (E. coli ATCC 25922) | MIC (S. pullorum 7913)
64.00 µM: GM, All [6]
